Here are results for 16 compounds from patent US11795195B2, “Antibody-drug conjugates including hemiasterlin derivative” (Sumitomo Pharma Co., Ltd., priority 2017, dated 2023).

Bounds are passed on as bounds.

For data set [1], the system named is Karpas-299 cells. Put plainly: Cellular Toxicity Test (1), CellTiter-Glo cell viability. The data set is classed as cell-based, human. To be noted: for IC50: Homo sapiens, 96 h, cultured 4 days, cell viability. The procedure: Karpas-299 cells (European Collection of Authenticated Cell Cultures, hereinafter, ECACC), which are human lymphoma cell lines, were cultured in RPMI 1640 (GIBCO) containing 10% fetal bovine serum (MP Biomedicals) (hereinafter, referred to as the “culture medium”). Cells were prepared to be 2×10^6 cells/mL in the culture medium, and were added to a 96 well microplate for cell culturing in an amount of 50 μL for each well. Compounds of Examples or Comparative Example compound 4 times diluted with the culture medium in 8 stages were added to the microplate in an amount of 50 μL for each well. These were cultured at 37 degree under 5% CO2 for 4 days. After culturing, the microplate was taken out from the incubator, and was left at rest at room temperature for 10 minutes. To each well, 50 μL of CellTiter-Glo Luminescent Cell Viability Assay (Promega) was added, and the resultant mixture was stirred. This mixture was incubated at a dark place for 20 minutes. Using a microplate luminometer, luminescence at each well was measured, thereby calculating the cell viability. In addition, from the value of cell viability, the IC50 value was calculated.
The IC50 value was calculated by the following formula: IC50 (nM)=antilog(LOG10(a/b)×(e−d)/(c−d)+LOG10b) a: concentration a of test substance b: concentration b of test substance c: cell viability upon adding test substance with concentration a d: cell viability upon adding test substance with concentration b e: intermediate value between maximum and minimum among cell viabilities upon adding test substances with different concentrations (a and b are concentrations crossing the cell viability e, and a>b is indicated).
The cell viability at each concentration was calculated by the following formula: Cell Viability (%)=a′/b′×100 a′: mean value of luminescence amount of wells to which test substance was added (n=6) b′: mean value of luminescence amount of wells to which test substance was not added (n=6) (n represents the number of evaluations performed per test substance concentration).
A general note: ATP-based viability assays read luminescence as a measure of living cells.

Data set [2] can be described thus: Membrane Permeability Test, parallel artificial membrane permeability assay (PAMPA). It counts as in vitro ADME. To be noted: pH 7.4, pH7.4, 37° C., read-out: Pe (pH7.4). How it is done:
By the parallel artificial membrane permeability assay (PAMPA), the membrane permeability of compounds of Examples was examined as follows: To the donor plate, System solution (pION inc.) and GIT Lipid-0 (pION inc.) were added in an amount of 200 μL and 4 μL for each well, respectively. To the acceptor plate, Acceptor Sink Buffer (pION inc.) was added in an amount of 200 μL. Both plates were superposed and incubated at 37° C. for 4 hours, and then, UVs in the solutions on the side of acceptor and on the side of donor were measured with an UV plate reader (190 to 500 nm). Compounds with poor UV absorption were measured by LC-MS. The permeability coefficient Pe (10^−6 cm/sec) of the drug was calculated by the following formula.
[formula] • ra=(VD/VA)Pa^(A-D)/Pa^(D-A)=rVPe^(A-D)/Pa^(D-A) • rV=(VD/VA) • VD=volume of doner well • VA=volume of acceptor well • t=permeation time • τ^SS=steady state time • R=retention • CD=CA=concentration in donor and acceptor well
On the technique in general: PAMPA measures passive passage across an artificial lipid membrane.

The next data set deals with SK-BR-3 cells. The experiment in a line: Cellular Toxicity Test (2), CellTiter-Glo cell viability. It counts as cell-based, human. As to conditions: for IC50: Homo sapiens, 72 h, cultured 3 days, cell viability. The procedure:
SK-BR-3 cells (ATCC), which are human breast cancer cell line, were cultured in McCoy's 5A (GIBCO) containing 10% fetal bovine serum (MP Biomedicals) (hereinafter, referred to as the “culture medium” in this test). SK-BR-3 cells were prepared to be 2×10^6 cells/mL in the culture medium, added to a 96 well microplate for cell culturing in an amount of 50 μL for each well, and cultured at 37 degree under 5% CO2 overnight, and then, compounds of Examples or Comparative Example compound 4 times diluted with the culture medium in 8 stages were added to the microplate in an amount of 50 μL for each well. These were cultured at 37 degree under 5% CO2 for 3 days. After culturing, the microplate was taken out from the incubator, and was left at rest at room temperature for 10 minutes. 50 μL of CellTiter-Glo Luminescent Cell Viability Assay (Promega) was added to each well, and the resultant mixture was stirred. This mixture was incubated at a dark place for 20 minutes. Using a microplate luminometer, luminescence at each well was measured, thereby calculating the cell viability. The IC50 value was calculated in accordance with the method described in Test Example 1.

In data set [3] the test system is Karpas-299 cells. Put plainly: Cellular Toxicity Test (1) for ADCs. The data set is classed as cell-based, human. As to conditions: Karpas-299 (CD30 antigen-positive, HER2 antigen-negative cell line), 4 days. The procedure: Karpas-299 cells (ECACC), which are CD30 antigen-positive and HER2 antigen-negative, were cultured in RPMI 1640 (GIBCO) containing 10% fetal bovine serum (MP Biomedicals) (hereinafter, referred to as “culture medium A” in this test). In addition, SK-BR-3 cells (ATCC), which are CD30 antigen-negative and HER2 antigen-positive, were cultured in McCoy's 5A (GIBCO) containing 10% fetal bovine serum (MP Biomedicals) (hereinafter, referred to as “culture medium B” in this test). Karpas-299 cells and SK-BR-3 cells were prepared to be 2×10^6 cells/mL in culture medium A or culture medium B, and were added to a 96 well microplate for cell culturing in an amount of 50 μL for each well. After the addition, SK-BR-3 cells were cultured at 37 degree under 5% CO2 overnight. ADCs 4 times diluted with culture medium A or culture medium B in 8 stages were added to the microplate in an amount of 50 μL for each well, and Karpas-299 cells and SK-BR-3 cells were cultured at 37 degree under 5% CO2 for 4 days or 3 days, respectively. After culturing, the microplate was taken out from the incubator, and was left at rest at room temperature for 10 minutes. […] Using a microplate luminometer, luminescence was measured, thereby calculating the cell viability for each concentration of the ADC. The IC50 value was calculated in accordance with the method described in Test Example 1.

Data set [4] has as its system Karpas-299 cells. The experiment in a line: Cellular Toxicity Test (2) for ADCs, cell survival relative to brentuximab. The data set is classed as cell-based, human. As to conditions: Karpas-299, 2000 ng/mL solution added, 4 days, relative to cells surviving brentuximab treatment. The procedure:
Karpas-299 cells were prepared to be 2×10^6 cells/mL in culture medium A, and were added to a 96 well microplate for cell culturing in an amount of 50 μL for each well. Brentuximab or Example ADCs, the concentration of which was prepared to be 2000 ng/mL with culture medium A, was added to the microplate in an amount of 50 μL for each well, and cultured at 37 degree under 5% CO2 for 4 days. After culturing, the microplate was taken out from the incubator, and was left at rest at room temperature for 10 minutes. To each well, 50 μL of CellTiter-Glo Luminescent Cell Viability Assay (Promega) was added, and the resultant mixture was stirred. This mixture was incubated at a dark place for 20 minutes, and luminescence was measured using a microplate luminometer, thereby determining the percentage of the number of cells that survived upon the treatment with Example ADCs relative to the number of cells that survived upon the treatment with brentuximab.

In the case of `CN[C@H](C(=O)N[C@H](C(=O)N(C)[C@H](/C=C(\C)C(=O)NCCCCNC(=O)CCCCCN1C(=O)C=CC1=O)C(C)C)C(C)(C)C)C(C)(C)c1cn(C)c2ccccc12` [Comparative Example compound, reference compound], in the data set with Karpas-299 cells [1], the “cellular toxicity to Karpas-299 cells (in words)” value is “strong cellular toxicity” and 0.0191 µM corresponded to half-maximal inhibition (IC50). Besides, the Papp at 4 h in data set [2] amounted to 16.9 ×10⁻⁶ cm/s. For the same compound, in the data set with SK-BR-3 cells, the “cellular toxicity to SK-BR-3 cells (in words)” value is “strong cellular toxicity” and the IC50 (usually the point on the concentration scale where inhibition reaches its midpoint) was found to be 0.162 µM.
In the case of `CN[C@H](C(=O)N[C@H](C(=O)N(C)[C@H](/C=C(\C)C(=O)N[C@H](CCC(=O)NCCN1C(=O)C=CC1=O)C(=O)O)C(C)C)C(C)(C)C)C(C)(C)c1cn(C)c2ccccc12` [Example M1, (3S,6S,9S,10E,14R)-6-tert-Butyl-14-(3-{[2-(2,5-dioxo-2,5-dihydro-1H-pyrrol-1-yl)ethyl]amino}-3-oxopropyl)-8,11-dimethyl-3-[2-(1-methyl-1H-indol-3-yl)propan-2-yl]-4,7,12-trioxo-9-(propan-2-yl)-2,5,8,13-tetraazapentadec-10-en-15-oic Acid], the concentration for half-maximal inhibition (IC50) is 0.726 µM in the data set on Karpas-299 cells [1] and greater than 1 µM with SK-BR-3 cells. The Papp at 4 h in data set [2] is less than 0.1 ×10⁻⁶ cm/s.
Take `CN[C@H](C(=O)N[C@H](C(=O)N(C)[C@H](/C=C(\C)C(=O)N[C@H](CCC(=O)NCCN1C(=O)C=CC1=O)C(=O)O)C(C)C)C(C)(C)C)C(C)(C)c1cccc(-c2ccccc2)c1` [Example M41]: half-maximal inhibition with Karpas-299 cells [1] (IC50) was put at 0.0263 µM. Besides, in data set [2], the Papp at 4 h came to 0.8 ×10⁻⁶ cm/s.
`CN[C@H](C(=O)N[C@H](C(=O)N(C)[C@H](/C=C(\C)C(=O)N[C@H](CCC(=O)NCCN1C(=O)C=CC1=O)C(=O)O)C(C)C)C(C)(C)C)C(C)(C)C1CCCCC1` [Example M33] returned an IC50 in the data set on Karpas-299 cells [1] of 0.228 µM. Further, the Papp at 4 h in data set [2] was less than 0.1 ×10⁻⁶ cm/s.
The like results for `CN[C@H](C(=O)N[C@H](C(=O)N(C)[C@H](/C=C(\C)C(=O)N[C@@H](CCC(=O)O)C(=O)NCCN1C(=O)C=CC1=O)C(C)C)C(C)(C)C)C(C)(C)c1cn(C)c2ccccc12` [Example M22] were, in that order, 0.154 µM and less than 0.1 ×10⁻⁶ cm/s.
For the compound `CNC(C(=O)N[C@H](C(=O)N(C)[C@H](/C=C(\C)C(=O)N[C@H](CCC(=O)O)C(=O)O)C(C)C)C(C)(C)C)C(C)(C)c1ccc(C(=O)NCCN2C(=O)C=CC2=O)cc1` (stereo partly drawn) [Example M47, ((4S,E)-4-((2 S)-2-(3-(4-((2-(2,5-Dioxo-2,5-dihydro-1H-pyrrol-1-yl)ethyl)carbamoyl)phenyl)-3-methyl-2-(methylamino)butanamido)-N,3,3-trimethylbutanamido)-2,5-dimethylhex-2-enoyl)-D-glutamic Acid], in the data set on Karpas-299 cells [1], the half-maximal inhibitory concentration (IC50) was greater than 1 µM. The Papp at 4 h in data set [2] was found to be 1.2 ×10⁻⁶ cm/s.
In the data set with Karpas-299 cells [1], `CN[C@H](C(=O)N[C@H](C(=O)N(C)[C@H](/C=C(\C)C(=O)N[C@H](CC(=O)O)C(=O)NCCN1C(=O)C=CC1=O)C(C)C)C(C)(C)C)C(C)(C)c1cn(C)c2ccccc12` [Example M24] yielded a concentration for half-maximal inhibition (IC50) of 0.166 µM. In addition, in data set [2], the Papp at 4 h was less than 0.1 ×10⁻⁶ cm/s.
`CN[C@H](C(=O)N[C@H](C(=O)N(C)[C@H](/C=C(\C)C(=O)N[C@H](CCC(=O)NCCN1C(=O)C=CC1=O)C(=O)O)C(C)C)C(C)(C)C)C(C)(C)c1cccc(Br)c1` [Example M44]: the half-maximal inhibitory concentration (IC50) in the data set on Karpas-299 cells [1] was determined as 0.0092 µM. Further, the Papp at 4 h in data set [2] is 6.8 ×10⁻⁶ cm/s.
The like results for `CN[C@H](C(=O)N[C@H](C(=O)N(C)[C@H](/C=C(\C)C(=O)N[C@H](CCC(=O)NCCN1C(=O)C=CC1=O)C(=O)O)C(C)C)C(C)(C)C)C(C)(C)c1cccc(C)c1` [Example M42] were, in that order, 0.0911 µM and 4.9 ×10⁻⁶ cm/s.
The like results for `CN[C@H](C(=O)N[C@H](C(=O)N(C)[C@H](/C=C(\C)C(=O)N[C@H](CCC(=O)NCCCCN1C(=O)C=CC1=O)C(=O)O)C(C)C)C(C)(C)C)C(C)(C)c1ccccc1` [Example M17] were, in that order, 0.035 µM and less than 0.1 ×10⁻⁶ cm/s.
Compound `C/C(=C\[C@H](C(C)C)N(C)C(=O)[C@@H](NC(=O)[C@H]1CCCCN1C(=O)CCN1C(=O)C=CC1=O)C(C)(C)C)C(=O)N[C@H](CCC(=O)O)C(=O)O` [Example M29] displayed a concentration for half-maximal inhibition (IC50) in the data set with Karpas-299 cells [1] greater than 1 µM. The Papp at 4 h in data set [2] is less than 0.1 ×10⁻⁶ cm/s.
On to `CN[C@H](C(=O)N[C@H](C(=O)N(C)[C@H](/C=C(\C)C(=O)N[C@H](CC(=O)NCCN1C(=O)C=CC1=O)C(=O)O)C(C)C)C(C)(C)C)C(C)(C)c1ccccc1` [Example M9], for which the IC50 with Karpas-299 cells [1] turned out to be 0.576 µM. Further, in data set [2], the Papp at 4 h is less than 0.1 ×10⁻⁶ cm/s.
As for `CN[C@H](C(=O)N[C@H](C(=O)N(C)[C@H](/C=C(\C)C(=O)N[C@@H](CC(=O)NCCN1C(=O)C=CC1=O)C(=O)O)C(C)C)C(C)(C)C)C(C)(C)c1ccccc1` [Example M10], in the data set with Karpas-299 cells [1], the concentration for half-maximal inhibition (IC50) worked out at 0.544 µM. Also, the Papp at 4 h in data set [2] was less than 0.1 ×10⁻⁶ cm/s.
The like results for `CN[C@H](C(=O)N[C@H](C(=O)N(C)[C@H](/C=C(\C)C(=O)N[C@H](CC(=O)NCCN1C(=O)C=CC1=O)C(=O)O)C(C)C)C(C)(C)C)C(C)(C)c1cn(C)c2ccccc12` [Example M20] were, in that order, 0.406 µM and less than 0.1 ×10⁻⁶ cm/s.
The compound `CN[C@H](C(=O)N[C@H](C(=O)N(C)[C@H](/C=C(\C)C(=O)N[C@H](CCC(=O)NCCCN1C(=O)C=CC1=O)C(=O)O)C(C)C)C(C)(C)C)C(C)(C)c1cn(C)c2ccccc12` [Example M23] gave a concentration for half-maximal inhibition (IC50) in the data set with Karpas-299 cells [1] of 0.0497 µM. Also, the Papp at 4 h in data set [2] was less than 0.1 ×10⁻⁶ cm/s.
In turn, “Comparative Example 1: Brentuximab, a CD30 antigen-specific antibody, no modifying agent, average DAR 0” returned a half-inhibitory concentration (IC50) with Karpas-299 cells [3] greater than 0.0066 µM. The “Cell survival rate (%)” value in the data set with Karpas-299 cells [4] turned out to be 100%.
